The subject of data set [1] is bicistronic HCV replicon (replicon RNA, GenBank Accession No. AJ242654). Put plainly: HCV Replicon Assay. The format is cell-based. The note with it: Hepatitis C virus, 72 h, read-out: Replicon IC50. On the technique in general: A replicon is a self-replicating genome or part of one, used to study replication in cells.

From patent US8735414B2 (priority 2009, dated 2014) come the findings set out here.

SMILES strings stand for the structures.

Broadly, the melting point is the temperature of the solid-liquid transition. As a reminder, the IC50 is the point on the concentration scale where inhibition reaches its midpoint.

With `CC(C)NS(=O)(=O)c1ccc(-c2c(C#N)c3ccc(OC(F)F)cc3n2C(C)C)nc1` [compound 1, 6-[3-cyano-6-(difluoromethoxy)-1-(propan-2-yl)-1H-indol-2-yl]-N-(propan-2-yl)pyridine-3-sulfonamide], the melting point lay within 157 to 159 °C.

`CCCn1c(-c2ccc(S(=O)(=O)NC(C)C)cn2)c(C#N)c2ccc(OC(F)F)cc21` [compound 3, 6-[3-cyano-6-(difluoromethoxy)-1-propyl-1H-indol-2-yl]-N-(propan-2-yl)pyridine-3-sulfonamide] gave a melting point of 166 to 170 °C.

Compound `CC(C)NS(=O)(=O)c1ccc(-c2c(C#N)c3cc(F)ccc3n2C2CCC2)nc1` [compound 5, 6-(3-cyano-1-cyclobutyl-5-fluoro-1H-indol-2-yl)-N-(propan-2-yl)pyridine-3-sulfonamide] registered a melting point of 203 to 205 °C.

With `CC(C)NS(=O)(=O)c1ccc(-c2c(C#N)c3ccc(C4CC4)cc3n2C2CCC2)nc1` [compound 7, 6-(3-cyano-1-cyclobutyl-6-cyclopropyl-1H-indol-2-yl)-N-(propan-2-yl)pyridine-3-sulfonamide], the melting point is 174 to 176 °C.

As for `CC(C)NS(=O)(=O)c1ccc(-c2c(C#N)c3cc(C4CC4)ccc3n2C2CCC2)nc1` [compound 8, 6-(3-cyano-1-cyclobutyl-5-cyclopropyl-1H-indol-2-yl)-N-(propan-2-yl)pyridine-3-sulfonamide], the melting point was 172 to 174 °C.

The compound `CC(C)NS(=O)(=O)c1ccc(-c2c(C#N)c3ccc(OC(F)(F)F)cc3n2C2CCC2)nc1` [compound 10, 6-[3-cyano-1-cyclobutyl-6-(trifluoromethoxy)-1H-indol-2-yl]-N-(propan-2-yl)pyridine-3-sulfonamide] came in with a melting point of 191 to 193 °C.

For the compound `CC(C)NS(=O)(=O)c1ccc(-c2c(C#N)c3ccc(OC(F)F)cc3n2CC2CC2)nc1` [compound 13, 6-[3-cyano-1-(cyclopropylmethyl)-6-(difluoromethoxy)-1H-indol-2-yl]-N-(propan-2-yl)pyridine-3-sulfonamide], the melting point fell in the range of 154 to 156 °C.

Turning to `CC(C)NS(=O)(=O)c1ccc(-c2c(C#N)c3ccc(SC(C)C)cc3n2C2CCC2)nc1` [compound 16, 6-[3-cyano-1-cyclobutyl-6-(propan-2-ylsulfanyl)-1H-indol-2-yl]-N-(propan-2-yl)pyridine-3-sulfonamide], the melting point lay in the range of 129 to 131 °C.

As for `CC(C)NS(=O)(=O)c1ccc(-c2c(C#N)c3cc(OC(F)F)ccc3n2C2CCC2)nc1` [compound 19, 6-[3-cyano-1-cyclobutyl-5-(difluoromethoxy)-1H-indol-2-yl]-N-(propan-2-yl)pyridine-3-sulfonamide], the melting point was 148 to 153 °C.

Turning to `CC(C)NS(=O)(=O)c1ccc(-c2c(C#N)c3cc(OC(F)(F)F)ccc3n2C2CCC2)nc1` [compound 23, 6-[3-cyano-1-cyclobutyl-5-(trifluoromethoxy)-1H-indol-2-yl]-N-(propan-2-yl)pyridine-3-sulfonamide], the melting point lay within 174 to 176 °C.

`N#Cc1c(-c2ccc(S(=O)(=O)NC(CF)CF)cn2)n(C2CCC2)c2cc(OC(F)F)ccc12` [compound 31, 6-[3-cyano-1-cyclobutyl-6-(difluoromethoxy)-1H-indol-2-yl]-N-(1,3-difluoropropan-2-yl)pyridine-3-sulfonamide] showed a melting point of 159 to 161 °C.

Take `CCc1cc2c(cc1F)c(C(N)=O)c(-c1ccc(S(=O)(=O)N[C@@H](C)C(F)(F)F)cn1)n2-c1cncc(Cl)c1` [compound 1044, 1-(5-chloropyridin-3-yl)-6-ethyl-5-fluoro-2-(5-{[(2S)-1,1,1-trifluoropropan-2-yl]sulfamoyl}pyridin-2-yl)-1H-indole-3-carboxamide]: the IC50 in data set [1] was < 500 nM.

With `Cc1cc2c(cc1F)cc(-c1ccc(S(=O)(=O)N[C@@H](C)C(F)(F)F)cn1)n2-c1ncco1` [compound 1059, 6-[5-fluoro-6-methyl-1-(1,3-oxazol-2-yl)-1H-indol-2-yl]-N-[(2S)-1,1,1-trifluoropropan-2-yl]pyridine-3-sulfonamide], in data set [1], the IC50 was < 500 nM.

In the case of `Cc1cc2c(cc1F)cc(-c1ccc(S(=O)(=O)N[C@@H](C)C(F)(F)F)cn1)n2-c1ccc(C#N)o1` [compound 1060, 6-[1-(5-cyanofuran-2-yl)-5-fluoro-6-methyl-1H-indol-2-yl]-N-[(2S)-1,1,1-trifluoropropan-2-yl]pyridine-3-sulfonamide], the IC50 in data set [1] was 2000 to 5000 nM.

In the case of `CC(C)(C)S(=O)(=O)Nc1ccc(-c2c(C(=O)O)c3cc(F)c(OC(F)F)cc3n2C2CCCCC2)cn1` [compound 1064, 2-{6-[(tert-butylsulfonyl)amino]pyridin-3-yl}-1-cyclohexyl-6-(difluoromethoxy)-5-fluoro-1H-indole-3-carboxylic acid], the IC50 in data set [1] was < 500 nM.

As to `Cc1cc2c(cc1F)c(C#N)c(-c1ccc(S(=O)(=O)N[C@@H](C)C(F)(F)F)cn1)n2-c1ncco1` [compound 1073, 6-[3-cyano-5-fluoro-6-methyl-1-(1,3-oxazol-2-yl)-1H-indol-2-yl]-N-[(2S)-1,1,1-trifluoropropan-2-yl]pyridine-3-sulfonamide], the IC50 in data set [1] is < 500 nM.

Regarding `CCc1cc2c(cc1F)c(C#N)c(-c1ccc(S(=O)(=O)N[C@@H](C)C(F)(F)F)cn1)n2-c1ccccc1F` [compound 1075, 6-[3-cyano-6-ethyl-5-fluoro-1-(2-fluorophenyl)-1H-indol-2-yl]-N-[(2S)-1,1,1-trifluoropropan-2-yl]pyridine-3-sulfonamide], in data set [1], the IC50 is < 500 nM.

For `[2H]C([2H])(C)c1cc2c(cc1F)c(C#N)c(-c1ccc(S(=O)(=O)N[C@@H](C)C(F)(F)F)cn1)n2-c1ncccn1` [compound 1078, 6-{3-cyano-6-[(1,1-dideuterium)ethyl]-5-fluoro-1-(pyrimidin-2-yl)-1H-indol-2-yl}-N-[(2S)-1,1,1-trifluoropropan-2-yl]pyridine-3-sulfonamide], the IC50 in data set [1] was < 500 nM.

As for `[2H]C([2H])(C)c1cc2c(cc1F)c(C#N)c(-c1ccc(S(=O)(=O)N[C@@]([2H])(C)C(F)(F)F)cn1)n2-c1ncccn1` [compound 1079, 6-{3-cyano-6-[(1,1-dideuterium)ethyl]-5-fluoro-1-(pyrimidin-2-yl)-1H-indol-2-yl}-N-[(2S)-1,1,1-trifluoro(2-deuterium)propan-2-yl]pyridine-3-sulfonamide], the IC50 in data set [1] is < 500 nM.

For the compound `C[C@@H](C1CC1)n1c(-c2ccc(NS(=O)(=O)C(C)(C)C)nc2)c(C(=O)O)c2cc(F)c(OC(F)F)cc21` [compound 1080, 2-{6-[(tert-butylsulfonyl)amino]pyridin-3-yl}-1-[(1S)-1-cyclopropylethyl]-6-(difluoromethoxy)-5-fluoro-1H-indole-3-carboxylic acid], the IC50 in data set [1] lay within 500 to 2000 nM.

On to `CCc1cc2c(cc1F)c(C#N)c(-c1ccc(NS(=O)(=O)C(C)(C)C)nc1)n2[C@@H](C)C1CC1` [compound 1082, N-(5-{3-cyano-1-[(1S)-1-cyclopropylethyl]-6-ethyl-5-fluoro-1H-indol-2-yl}pyridin-2-yl)-2-methylpropane-2-sulfonamide], for which the IC50 in data set [1] was < 500 nM.

Consider `C[C@H](C1CC1)n1c(-c2ccc(NS(=O)(=O)C(C)(C)C)nc2)c(C(=O)O)c2cc(F)c(OC(F)F)cc21` [compound 1084, 2-{6-[(tert-butylsulfonyl)amino]pyridin-3-yl}-1-[(1R)-1-cyclopropylethyl]-6-(difluoromethoxy)-5-fluoro-1H-indole-3-carboxylic acid], for which the IC50 in data set [1] is < 500 nM.

As for `Cc1cc(NS(=O)(=O)C(C)(C)C)ncc1-c1c(C(=O)O)c2cc(F)c(OC(F)F)cc2n1[C@H](C)C1CC1` [compound 1086, 2-{6-[(tert-butylsulfonyl)amino]-4-methylpyridin-3-yl}-1-[(1R)-1-cyclopropylethyl]-6-(difluoromethoxy)-5-fluoro-1H-indole-3-carboxylic acid], the IC50 in data set [1] was < 500 nM.

In the case of `Cc1nc(NS(=O)(=O)C(C)(C)C)ccc1-c1c(C(=O)O)c2cc(F)c(OC(F)F)cc2n1C(C)C` [compound 1093, 2-{6-[(tert-butylsulfonyl)amino]-2-methylpyridin-3-yl}-6-(difluoromethoxy)-5-fluoro-1-(propan-2-yl)-1H-indole-3-carboxylic acid], in data set [1], the IC50 lay in the range of 500 to 2000 nM.

As to `Cc1nc(NS(=O)(=O)C(C)(C)C)ccc1-c1c(C(=O)O)c2cc(F)c(OC(F)F)cc2n1[C@H](C)C1CC1` [compound 1094, 2-{6-[(tert-butylsulfonyl)amino]-2-methylpyridin-3-yl}-1-[(1R)-1-cyclopropylethyl]-6-(difluoromethoxy)-5-fluoro-1H-indole-3-carboxylic acid], the IC50 in data set [1] was < 500 nM.

For `COC(=O)c1c(-c2ccc(NS(=O)(=O)C(C)(C)C)nc2)n(C2CCCCC2)c2cc(OCF)c(F)cc12` [compound 1099, methyl 2-{6-[(tert-butylsulfonyl)amino]pyridin-3-yl}-1-cyclohexyl-5-fluoro-6-(fluoromethoxy)-1H-indole-3-carboxylate], in data set [1], the IC50 is 500 to 2000 nM.

For `[2H]C([2H])([2H])c1cc2c(cc1F)c(C#N)c(-c1ccc(S(=O)(=O)N[C@@]([2H])(C)C(F)(F)F)cn1)n2-c1ncccn1` [compound 1107, 6-[3-cyano-5-fluoro-6-(1,1,1-trideuterium)methyl-1-(pyrimidin-2-yl)-1H-indol-2-yl]-N-[(2S)-1,1,1-trifluoro(2-deuterium)propan-2-yl]pyridine-3-sulfonamide], the concentration for half-maximal inhibition (IC50) in data set [1] was < 500 nM.

In the case of `[2H][C@@](C)(NS(=O)(=O)c1ccc(-c2c(C#N)c3cc(F)c(C)cc3n2C2CCC2)nc1)C(F)(F)F` [compound 1113, 6-(3-cyano-1-cyclobutyl-5-fluoro-6-methyl-1H-indol-2-yl)-N-[(2S)-1,1,1-trifluoro(2-deuterium)propan-2-yl]pyridine-3-sulfonamide], the IC50 in data set [1] was < 500 nM.

Regarding `[2H]C(C)(C)NS(=O)(=O)c1ccc(-c2c(C#N)c3cc(F)c(C([2H])([2H])[2H])cc3n2CC2CC2)nc1` [compound 1119, 6-[3-cyano-1-(cyclopropylmethyl)-5-fluoro-6-(1,1,1-trideuterium)methyl-1H-indol-2-yl]-N-[(2-deuterium)propan-2-yl]pyridine-3-sulfonamide], the half-inhibitory concentration (IC50) in data set [1] was < 500 nM.
